Reference: patent US11186576B2, “Pyrazolo[1,5-A][1,3,5]triazine and pyrazolo[1,5-A]pyrimidine derivatives as CDK inhibitors” (Aurigene Discovery Technologies Limited, priority 2015, dated 2021)
Where two headings read alike, the source gives them in different places.

Key:
CDK7/CycH/MNAT1 = CDK7/CycH/MNAT1 (Homo sapiens (Human), UniProt P50613); test: Biochemical assay for CDK7 (TR-FRET kinase assay); details: for inhibition at 10 µM: read-out: % inhibition @ 10 μM
Outline: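 CDK7/CycH/MNAT1 (5 nM) was preincubated with compound for 60 min at room temperature, then reacted for 60 min with 100 nM ULight-MBP and 1 mM ATP in 1% DMSO. Irreversibility was probed with 20, 60 and 180 min preincubations.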

[1] = system: RNA polymerase II CTD phosphorylation (MDA-MB-231/NCI-H358 cells); test: Inhibition of RNA polymerase II CTD phosphorylation in cell western assay; assay type: cell-based; details: 4 hours incubation, phospho RNA Pol II Ser-5 or Ser-2
Protocol: 25000 cells (MDA-MB-231/NCI-H358) were seeded in 96 well black clear bottom plate incubated for overnight before addition of selected compound. 3 fold dilutions of selected compound diluted in DMSO starting from 10 μM, added to cells and incubated for 4 hours at 37° C., 5% CO2 incubator. Cells were washed once with 100 μl of phosphate buffered saline (sigma #P3813), then fixed with 100 μl/well of 4% Para formaldehyde for 60 min at room temperature, in dark. The cells were washed 3 times with 100 μl of wash buffer (PBS with 0.1% Triton-X-100), later blocked for 2 hours at room temperature in blocking buffer (5% BSA in PBST). Cells were stained overnight at 4° C. with Phospho RNA Pol II (S5) (Millipore #04-1572, Abcam #5131) or Phospho RNA Pol II (Ser-2), antibody (Bethyl labs #A300-654-A) in blocking buffer. Post incubation cells were washed with Delifia wash buffer (Perkin Elmer #4010-0010). Cells were treated with LANCE secondary antibodies (LANCE® Eu-W1024 perkin elmer #AD-0076 for phospho Ser-5 CTD RNA pol-II and Delfia Eu-N1 anti rabbit IgG Perkin elmer #AD0106 for phospho Ser-2 CTD RNA pol-II) for 2 hours in assay buffer (Perkin Elmer #1244-111), Cells were washed 3 times with Delfia wash buffer post incubation, Enhancement solution (Perkin Elmer #1244-105) added and incubated for 20 mins. Europium readings were taken in Victor-3 instrument. Cell normalization was done using Hoechst dye (0.5 μg/ml).
Selected compounds were screened in the above mentioned assay procedure. The EC50 values are summarised in the below table; wherein group “A” refers to an EC50 value of less than or equal to 1 μM, group “B” refers to EC50 value in range of 1 to 10 μM and group “C” refers to EC50 value of greater than 10 μM.

[2] = 10 μM compound, 60 min pre-incubation, 1 mM ATP
[3] = 60 min pre-incubation, 1 mM ATP, read-out: IC50

CDK7/CycH/MNAT1, sequence (P50613 whole entry): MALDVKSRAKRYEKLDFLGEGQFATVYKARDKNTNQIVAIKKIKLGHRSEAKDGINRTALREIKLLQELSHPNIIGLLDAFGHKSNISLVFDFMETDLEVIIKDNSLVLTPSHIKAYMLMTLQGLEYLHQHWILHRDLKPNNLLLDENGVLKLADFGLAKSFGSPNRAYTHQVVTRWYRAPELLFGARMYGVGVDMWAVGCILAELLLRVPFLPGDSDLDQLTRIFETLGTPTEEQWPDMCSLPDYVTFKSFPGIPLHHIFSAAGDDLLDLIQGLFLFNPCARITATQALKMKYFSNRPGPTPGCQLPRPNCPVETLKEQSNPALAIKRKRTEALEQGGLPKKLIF
CDK7/CycH/MNAT1, sequence (P51946 whole entry partner): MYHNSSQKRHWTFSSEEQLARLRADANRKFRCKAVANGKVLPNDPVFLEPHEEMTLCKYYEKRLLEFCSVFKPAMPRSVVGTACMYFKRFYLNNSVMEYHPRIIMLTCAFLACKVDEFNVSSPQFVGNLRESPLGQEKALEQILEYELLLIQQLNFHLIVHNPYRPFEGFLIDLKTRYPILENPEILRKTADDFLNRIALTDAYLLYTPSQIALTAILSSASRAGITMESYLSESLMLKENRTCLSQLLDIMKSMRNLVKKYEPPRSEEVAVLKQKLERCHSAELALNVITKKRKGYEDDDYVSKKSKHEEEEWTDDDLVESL
CDK7/CycH/MNAT1, sequence (P51948 whole entry partner): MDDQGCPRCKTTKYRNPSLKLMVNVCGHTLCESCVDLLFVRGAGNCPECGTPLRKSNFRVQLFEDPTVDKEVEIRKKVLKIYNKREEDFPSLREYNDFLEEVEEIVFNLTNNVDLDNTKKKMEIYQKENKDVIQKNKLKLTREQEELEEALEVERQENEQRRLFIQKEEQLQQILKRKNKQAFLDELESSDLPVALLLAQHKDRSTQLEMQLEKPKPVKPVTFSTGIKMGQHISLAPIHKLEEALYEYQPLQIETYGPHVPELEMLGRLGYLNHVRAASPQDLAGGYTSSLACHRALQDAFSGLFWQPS

SMILES | inhibition at 10 µM (CDK7/CycH/MNAT1; [2]) | IC50 (CDK7/CycH/MNAT1; [3]) | also measured
C=CC(=O)N1CCC(C(=O)Nc2cccc(CNc3nc(OCCOC)nc4c(C(C)C)cnn34)c2)C1 (stereo not drawn) [Compound 103, 1-acryloyl-N-(3-(((8-isopropyl-2-(2-methoxyethoxy)pyrazolo[1,5-a][1,3,5]triazin-4-yl)amino)methyl)phenyl)pyrrolidine-3-carboxamide] | 80% | > 1000 nM | –
C=CC(=O)N1CCC(C(=O)Nc2cccc(CNc3nc(OCCOCCOC)nc4c(C(C)C)cnn34)c2)C1 (stereo not drawn) [Compound 104, 1-acryloyl-N-(3-(((8-isopropyl-2-(2-(2-methoxyethoxy)ethoxy)pyrazolo[1,5-a][1,3,5]triazin-4-yl)amino)methyl)phenyl)pyrrolidine-3-carboxamide] | 78% | > 1000 nM | –
C=CC(=O)N[C@H]1CC[C@@H](C(=O)Nc2cc(CNc3nc(OC4CCN(C)CC4)nc4c(C(C)C)cnn34)ccc2F)CC1 [Compound 118, (1,4-cis)-4-acrylamido-N-(2-fluoro-5-(((8-isopropyl-2-((1-methylpiperidin-4-yl)oxy)pyrazolo[1,5-a][1,3,5]triazin-4-yl)amino)methyl)phenyl)cyclohexane-1-carboxamide] | 93% | 300 to 1000 nM | –
C=CC(=O)N1CCN(C(=O)Oc2cccc(CNc3nc(OC4CCN(C)CC4)nc4c(C(C)C)cnn34)c2)CC1 [Compound 121, 3-(((8-isopropyl-2-((1-methylpiperidin-4-yl)oxy)pyrazolo[1,5-a][1,3,5]triazin-4-yl)amino)methyl)phenyl 4-acryloylpiperazine-1-carboxylate] | – | – | IC50 (CDK7/CycH/MNAT1; IC50, 60 min pre-incubation, 1 mM ATP): < 300 nM; inhibition at 10 µM (CDK7/CycH/MNAT1): 93%
CC(C)c1cnn2c(NCc3ccc(F)c(NC(=O)C4CCCN(C(=O)/C=C/CN(C)C)C4)c3)nc(OC3CCN(C)CC3)nc12 (stereo not drawn) [Compound 123, (E)-1-(4-(dimethylamino)but-2-enoyl)-N-(2-fluoro-5-(((8-isopropyl-2-((1-methylpiperidin-4-yl)oxy)pyrazolo[1,5-a][1,3,5]triazin-4-yl)amino)methyl)phenyl)piperidine-3-carboxamide] | 96% | < 300 nM | –
C=CC(=O)NC1CCC(C(=O)Nc2cccc(Nc3nc(OC4CCN(C)CC4)nc4c(C(C)C)cnn34)c2)CC1 (stereo not drawn) [Compound 126, (1,4-cis)-4-acrylamido-N-(3-((8-isopropyl-2-((1-methylpiperidin-4-yl)oxy)pyrazolo[1,5-a][1,3,5]triazin-4-yl)amino)phenyl)cyclohexane-1-carboxamide] | 80% | – | –
C=CC(=O)N[C@H]1CC[C@@H](C(=O)Nc2cccc(Nc3nc(OC4CCN(C)CC4)nc4c(C(C)C)cnn34)c2)CC1 [Compound 126, (1,4-cis)-4-acrylamido-N-(3-((8-isopropyl-2-((1-methylpiperidin-4-yl)oxy)pyrazolo[1,5-a][1,3,5]triazin-4-yl)amino)phenyl)cyclohexane-1-carboxamide] | – | > 1000 nM | –
CC(C)c1cnn2c(Nc3cccc(NC(=O)c4ccc(NC(=O)/C=C/CN(C)C)cc4)c3)nc(OC3CCN(C)CC3)nc12 [Compound 130, (E)-4-(4-(dimethylamino)but-2-enamido)-N-(3-((8-isopropyl-2-((1-methylpiperidin-4-yl)oxy)pyrazolo[1,5-a][1,3,5]triazin-4-yl)amino)phenyl)benzamide] | – | < 300 nM | inhibition at 10 µM (CDK7/CycH/MNAT1): 97%
CC(C)c1cnn2c(Nc3cccc(C(=O)NC4CCCN(C(=O)/C=C/CN(C)C)C4)c3)nc(OC3CCN(C)CC3)nc12 (stereo not drawn) [Compound 133, (E)-N-(1-(4-(dimethylamino)but-2-enoyl)piperidin-3-yl)-3-((8-isopropyl-2-((1-methylpiperidin-4-yl)oxy)pyrazolo[1,5-a][1,3,5]triazin-4-yl)amino)benzamide] | 97% | < 300 nM | –
CC(C)c1cnn2c(NCc3cccc(NC(=O)[C@H]4CC[C@@H](NC/C=C/C(=O)N(C)C)CC4)c3)nc(OC3CCN(C)CC3)nc12 [Compound 135, (1s,4s)-4-(((E)-4-(dimethylamino)-4-oxobut-2-en-1-yl)amino)-N-(3-(((8-isopropyl-2-((1-methylpiperidin-4-yl)oxy)pyrazolo[1,5-a][1,3,5]triazin-4-yl)amino)methyl)phenyl)cyclohexane-1-carboxamide] | 97% | < 300 nM | –
CC(C)c1cnn2c(NCc3ccccc3N3CCN(C(=O)/C=C/CN(C)C)CC3)nc(NC3CCOCC3)nc12 [Compound 137, (E)-4-(dimethylamino)-1-(4-(2-(((8-isopropyl-2-((tetrahydro-2H-pyran-4-yl)amino)pyrazolo[1,5-a][1,3,5]triazin-4-yl)amino)methyl)phenyl)piperazin-1-yl)but-2-en-1-one] | 99% | < 300 nM | –
CC(C)c1cnn2c(NCC3CCN(C(=O)/C=C/CN4CCCC4)CC3)nc(NC3CCOCC3)nc12 [Compound 138, (E)-1-(4-(((8-isopropyl-2-((tetrahydro-2H-pyran-4-yl)amino)pyrazolo[1,5-a][1,3,5]triazin-4-yl)amino)methyl)piperidin-1-yl)-4-(pyrrolidin-1-yl)but-2-en-1-one] | 64% | > 1000 nM | –
C=CC(=O)N1CCC1C(=O)Nc1cccc(CNc2cc(NC3CCOCC3)nc3c(C(C)C)cnn23)c1 (stereo not drawn) [Compound 139, 1-acryloyl-N-(3-(((3-isopropyl-5-((tetrahydro-2H-pyran-4-yl)amino)pyrazolo[1,5-a]pyrimidin-7-yl)amino)methyl)phenyl)azetidine-2-carboxamide] | 98% | < 300 nM | –

The next lines start with results.

inhibition at 10 µM (CDK7/CycH/MNAT1; [2]) | IC50 (CDK7/CycH/MNAT1; [3]) | SMILES | also measured
94% | < 300 nM | C=CC(=O)N1CCC(C(=O)Nc2cccc(CNc3nc(NC4CCOCC4)nc4c(C(C)C)cnn34)c2)C1 (single isomer, unassigned) [Compound 5, 1-acryloyl-N-(3-(((8-isopropyl-2-((tetrahydro-2H-pyran-4-yl)amino)pyrazolo[1,5-a][1,3,5]triazin-4-yl)amino)methyl)phenyl)pyrrolidine-3-carboxamide] | EC50 [1]: 1000 to 10000 nM
– | < 300 nM | C=CC(=O)N1CCC(C(=O)Nc2cccc(CNc3nc(NC4CCOCC4)nc4c(C(C)C)cnn34)c2)C1 (single isomer, unassigned) [Compound 6, 1-acryloyl-N-(3-(((8-isopropyl-2-((tetrahydro-2H-pyran-4-yl)amino)pyrazolo[1,5-a][1,3,5]triazin-4-yl)amino)methyl)phenyl)pyrrolidine-3-carboxamide] | % inhibition @ 10 μM (CDK7/CycH/MNAT1; [2]): 91%; EC50 [1]: 1000 to 10000 nM
99% | < 300 nM | C=CC(=O)N1CCOC(C(=O)Nc2cccc(CNc3nc(OC4CCN(C)CC4)nc4c(C(C)C)cnn34)c2)C1 (stereo not drawn) [Compound 112, 4-acryloyl-N-(3-(((8-isopropyl-2-((1-methylpiperidin-4-yl)oxy)pyrazolo[1,5-a][1,3,5]triazin-4-yl)amino)methyl)phenyl)morpholine-2-carboxamide] | –
– | < 300 nM | C=CC(=O)N1CCOCC1C(=O)Nc1cccc(CNc2nc(OC3CCN(C)CC3)nc3c(C(C)C)cnn23)c1 (stereo not drawn) [Compound 113, 4-acryloyl-N-(3-(((8-isopropyl-2-((1-methylpiperidin-4-yl)oxy)pyrazolo[1,5-a][1,3,5]triazin-4-yl)amino)methyl)phenyl)morpholine-3-carboxamide] | –
93% | < 300 nM | C=CC(=O)N1CCCC(C(=O)Nc2ccc(CNc3nc(OC4CCN(C)CC4)nc4c(C(C)C)cnn34)c[n+]2[O-])C1 (stereo not drawn) [Compound 120, 2-(1-acryloylpiperidine-3-carboxamido)-5-(((8-isopropyl-2-((1-methylpiperidin-4-yl)oxy)pyrazolo[1,5-a][1,3,5]triazin-4-yl)amino)methyl)pyridine 1-oxide] | –
95% | < 300 nM | C=CC(=O)N1CCC(C(=O)Nc2cccc(Nc3nc(OC4CCN(C)CC4)nc4c(C(C)C)cnn34)c2)CC1 [Compound 127, 1-acryloyl-N-(3-((8-isopropyl-2-((1-methylpiperidin-4-yl)oxy)pyrazolo[1,5-a][1,3,5]triazin-4-yl)amino)phenyl)piperidine-4-carboxamide] | –
73% | > 1000 nM | C=CC(=O)N1CCC(C(=O)Nc2cccc(CNc3nc(OC)nc4c(C(C)C)cnn34)c2)CC1 [Compound 136, 1-acryloyl-N-(3-(((8-isopropyl-2-methoxypyrazolo[1,5-a][1,3,5]triazin-4-yl)amino)methyl)phenyl)piperidine-4-carboxamide] | –
